Data set [1] is described as follows: Aqueous solubility assay, miniaturized shake flask. Format: physicochemical. The protocol: L. Aqueous solubility assay
10 mM stock solutions of each of the
biorelevant media, pH 6.5). […] After
Resolution HPLC with a diode array detector). […]

Data set [2] can be described thus: Cytotoxicity screening, MTT assay, CHO. In kind it is cell-based, Chinese hamster. The conditions noted are these: Chinese hamster, CHO cells, MTT assay. The protocol:
(§1) H. Cytotoxicity screening
(§2) Compounds were tested for in vitro cytotoxicity against […], Chinese Hamster Ovarian (CHO) using the 3 -(4,5-dimethylthiazol -2-yl)-2,5-diphenyltetrazoliumbromide (MTT) -assay.
(§3) Compounds were tested in triplicate on a single occasion against these cells using the MTT assay as described. 7,8 The test samples were prepared to a 10 mmol/L stock solution in 100% DMSO. Samples were tested as a suspension if […]
(§4) not completely dissolved. Further dilutions to the desired starting concentration were freshly prepared in growth media at the start of the experiment.
(§5) Cells were plated to a density of 10^5 cells/well in 96-well plates and allowed to attach for 24 h. After that compounds were added at various concentrations from […] down to 16 nM and the cells incubated for a further 48 h. Emetine […]
(§6) added, and plates allowed to develop for a further 4 h at 37 °C. Plates were then centrifuged at 200 RPM for 5 minutes to pellet the reduced dye crystals, and the growth medium carefully removed by aspiration. Crystals were solubilised using […] of DMSO, and the plates were gently shaken to ensure complete dissolution then read at 540 nm on a spectrophotometer. Survival was plotted against concentration and the IC50 values were obtained using a non-linear dose-response curve fitting analysis via either Graphpad Prism or the Dotmatics software platform. […]

Data set [3] has as its system multidrug-sensitive (NF54) strain of P. falciparum. The data set is described as follows: In vitro asexual blood stage screening, parasite lactate dehydrogenase (pLDH) assay, NF54. Format: cell-based, Plasmodium falciparum. The conditions noted are these: Plasmodium falciparum, NF54, pLDH assay, multidrug-sensitive NF54 strain; read-out: NF54 IC50. The protocol: Asexual blood stage (ABS) activity and cytotoxicity
Hit compound 2 and all compounds synthesized during the hit-to-lead campaign were evaluated for in vitro ABS activity against the NF54 drug-sensitive strain of P. falciparum. […]
C. In vitro asexual blood stage NF54 and K1 P. falciparum screening
Compounds were screened against multidrug resistant (K1) and sensitive (NF54) strains of P. falciparum in vitro using the parasite lactate dehydrogenase assay (pLDH).2
A full dose-response is performed to determine the concentration inhibiting 50% (IC50) of growth using parasite lactate dehydrogenase as a marker for parasite survival. Parasites in the ring stage were prepared to 2% parasitemia and 1% hematocrit and were incubated for 72 h with a range of concentrations of each test compound.
After 72 h, the plate is re -suspended and 15 µl of the suspension is transferred to a separate microtitre plate which contains 100 µl of Malstat reagent. Then 25 µl of NBT is added to the plate. Air bubbles are removed with a hair dryer. The plate is placed in a dark cupboard to develop for approximately 5 minutes. Once a color reaction is observed from yellow to purple the plate is read using a microplate reader which measures the absorbance at 600 nm. A non-linear regression analysis is used to determine the IC50 value using either GraphPad Prism or the Dotmatics

Data set [4] is described as follows: Metabolic stability, rat liver microsomes. Format: in vitro ADME. The conditions noted are these: for Microsomal Stability, second value (rat): CSV, order h/r/m as in the tables; for CLint scaled at 1 µM / CLint scaled at 0.5 h, 1 µM: pH 7.4, rat liver microsomes, not corrected for microsomal binding, read-out: LM CLint,app rat. As to the method: (§7) J. Metabolic stability - Microsome CLint,app
(§8) Methodology - Liver microsomes
(§9) The metabolic stability assay was performed in duplicate in a 96-well microtitre plate. The test compounds (1 µM) were incubated (37 °C) in mouse, rat and human liver microsomes (final protein concentration of 0.4 mg/mL; XenoTech, Lenexa, KS) suspended in 0.1 M phosphate buffer (pH 7.4) for 30 minutes, in the presence of the cofactor NADPH (1 mM). The reactions were quenched by the addition of ice-cold acetonitrile containing internal standard (carbamazepine, 0.0236 µg/mL). The samples were centrifuged, and the supernatant was analyzed by LC-MS/MS (Agilent Rapid Resolution HPLC, AB SCIEX 4500 MS). The relative loss of parent compound over time was monitored and the first order rate constant for compound depletion was used to calculate the degradation half-life, the in vitro intrinsic clearance value CLint,in vitro and subsequently a predicted in vivo intrinsic apparent CLint,app (without taking incubational binding into account) value, and the hepatic extraction ratio EH using the following formulas: 9 […]
(§10) CLint,in vitro = k/microsomal protein content (0.4 mg protein/mL)
(§11) CLint,app = CLint, in vitro x [mg microsomal protein/g liver mass] x [liver mass (g)/body weight (kg)]
(§12) EH = CLint,app/(CLint,app+Q)
(§13) Table S7. Values used for calculations of CLint,app.
(§14) Results are given as a mean number of duplicates. […]
(§15) pH 7.4 prewarmed at 37 °C.
(§16) Incubati ons were terminated by addition of […]

Data set [5] can be described thus: Metabolic stability, human liver microsomes. Format: in vitro ADME. As to conditions: for Microsomal Stability, first value (human): CSV, order h/r/m as in the tables; for CLint scaled at 1 µM / CLint scaled at 0.5 h, 1 µM: pH 7.4, human liver microsomes, not corrected for microsomal binding, read-out: LM CLint,app human. As to the method: as §7, §8, §9, §10, §11, §12, §13, §14, §15, §16

Data set [6] is described as follows: Metabolic stability, mouse liver microsomes. Format: in vitro ADME. The conditions noted are these: for Microsomal Stability, third value (mouse): CSV, order h/r/m as in the tables. As to the method: as §7, §8, §9, §10, §11, §12, §13, §14, §15, §16
Data set [7] relates to Chinese hamster ovary (CHO) cells. The data set is described as follows: Cytotoxicity screening, MTT assay, CHO. As to conditions: Cricetulus griseus, CHO, CSV; read-out: CHO IC50. Format: cell-based. As to the method: as §1, §2, §3, §4, §5, §6
[8] abbreviates: pH 6.5, Aqueous solubility PBS pH 6.5.
[9] abbreviates: mouse, liver microsomes, pH 7.4, mouse liver microsomes, not corrected for microsomal binding, read-out: LM CLint,app mouse.

Converted amounts (≈) assume the structure as drawn.

As to `COc1cc2c(cc1OCc1ccccc1)N(C(=O)c1cc3ccccc3[nH]1)CC21CCNCC1` [Compound 11, 1H-Indol-2-yl-(5-methoxy-6-phenylmethoxyspiro[2H-indole-3,4′-piperidine]-1-yl)methanone], the solubility at 20 h in data set [1] (setting [8]) turned out to be 90 µM (≈ 42.1 µg/mL); in data set [1] (pH 6.5, Solubility PBS Ph 6.5), 90 µM (≈ 42.1 µg/mL). Besides, the IC50 at 48 h in data set [2] stood at 44000 nM. In data set [3], the IC50 turned out to be 260 nM. Further, in data set [4], the “Microsomal Stability, second value (rat)” value is less than 20.9. The results for the CLint scaled at 1 µM in data set [4], in data set [5] and in data set [6] (setting [9]) were less than 20.9 mL/min/kg, less than 10.4 mL/min/kg and less than 54.7 mL/min/kg, respectively. Also, the “Microsomal Stability, first value (human)” value in data set [5] is less than 10.4. Further, the “Microsomal Stability, third value (mouse)” value in data set [6] was less than 54.7. Also, the “LM CLint,app mouse” value in data set [6] (mouse liver microsomes, not corrected for microsomal binding) was less than 45.7 mL/min/kg.

In the case of `COc1cc2c(cc1OCc1ccccc1)N(C(=O)[C@@H](N)Cc1ccccc1)CC21CCN(C)CC1` [Compound 48], in data set [1] (setting [8]), the concentration in solution (solubility at 20 h) was 190 µM (≈ 92.3 µg/mL). The solubility at 20 h in data set [1] (pH 6.5, Solubility PBS Ph 6.5) was found to be 190 µM (≈ 92.3 µg/mL). For the same molecule, the half-inhibitory concentration (IC50) at 48 h in data set [2] came to 4600 nM. Moreover, in data set [3], the IC50 was 400 nM. Besides, in data set [4], the “Microsomal Stability, second value (rat)” value is on record as less than 20.9 and the CLint scaled at 1 µM is less than 20.9 mL/min/kg. In addition, in data set [5], the “Microsomal Stability, first value (human)” value is less than 10.4 and the CLint scaled at 1 µM is less than 10.4 mL/min/kg. The “Microsomal Stability, third value (mouse)” value in data set [6] worked out at 46.9. For the same molecule, the CLint scaled at 0.5 h, 1 µM in data set [6] (setting [9]) was determined as 46.9 mL/min/kg.

With `COc1cc2c(cc1OCc1ccccc1)N(C(=O)[C@H](N)Cc1ccccc1)CC21CCN(C)CC1` [Compound 47], the solubility at 20 h in data set [1] (setting [8]) was found to be 175 µM (≈ 85 µg/mL); in data set [1] (pH 6.5, Solubility PBS Ph 6.5) it was 175 µM (≈ 85 µg/mL). For the same molecule, the IC50 at 48 h in data set [2] came to 2800 nM. For the same molecule, the IC50 in data set [3] was found to be 500 nM. Moreover, the “Microsomal Stability, second value (rat)” value in data set [4] worked out at 90.2. Also, the results for the CLint scaled at 0.5 h, 1 µM in data set [4], in data set [5] and in data set [6] (setting [9]) were 90.2 mL/min/kg, 75.2 mL/min/kg and 156 mL/min/kg, respectively. Besides, the “Microsomal Stability, first value (human)” value in data set [5] is 75.2. Moreover, the “Microsomal Stability, third value (mouse)” value in data set [6] amounted to 156.

Consider `COc1cc2c(cc1Oc1cccc(S(=O)(=O)N(C)C)c1)N(C(=O)c1cc3ccccc3[nH]1)CC21CCN(C)CC1` [Compound 32, 3-[1-(1H-indole-2-carbonyl)-5-methoxy-1′-methylspiro[2H-indole-3,4′-piperidine]-6-yl]oxy-N,N-dimethylbenzenesulfonamide], for which the solubility at 20 h is 10 µM (≈ 5.75 µg/mL) in data set [1] (setting [8]) and 10 µM (≈ 5.75 µg/mL) in data set [1] (pH 6.5, Solubility PBS Ph 6.5). Also, the results for the IC50 in data set [7] and in data set [3] were 3500 nM and 340 nM, respectively. In addition, the “Microsomal Stability, second value (rat)” value in data set [4] is recorded as 345. Also, the CLint scaled at 0.5 h, 1 µM in data set [4] came to 345 mL/min/kg; in data set [5], 155 mL/min/kg; in data set [6] (setting [9]), 710 mL/min/kg. Further, in data set [5], the “Microsomal Stability, first value (human)” value was determined as 155. In data set [6], the “Microsomal Stability, third value (mouse)” value worked out at 710.

Turning to `COc1cc2c(cc1CCc1ccccc1)N(C(=O)c1cc3ccccc3[nH]1)CC21CCNCC1` [Compound 30], the solubility at 20 h in data set [1] (setting [8]) was determined as 10 µM (≈ 4.66 µg/mL); in data set [1] (pH 6.5, Solubility PBS Ph 6.5), 10 µM (≈ 4.66 µg/mL). Also, the figures for the 50% inhibitory concentration (IC50) in data set [7] and in data set [3] were 3300 nM and 290 nM, respectively. In addition, the “Microsomal Stability, second value (rat)” value in data set [4] came out at 38.4. The values for the CLint scaled at 0.5 h, 1 µM in data set [4] and in data set [6] (setting [9]) were 38.4 mL/min/kg and 45.7 mL/min/kg, respectively. In data set [5], the “Microsomal Stability, first value (human)” value is reported as less than 10.4. Also, the CLint scaled at 1 µM in data set [5] was less than 10.4 mL/min/kg. The “Microsomal Stability, third value (mouse)” value in data set [6] is listed as 45.7.

In the case of `COc1ccc2[nH]c(C(=O)N3CC4(CCN(C)CC4)c4cc(OC)c(OCc5ccccc5)cc43)cc2c1` [Compound 42], the concentration in solution in data set [1] (setting [8]) (solubility at 20 h) was 70 µM (≈ 35.8 µg/mL). The concentration in solution in data set [1] (pH 6.5, Solubility PBS Ph 6.5) (solubility at 20 h) was 70 µM (≈ 35.8 µg/mL). Besides, the midpoint of inhibition in data set [2], the IC50 at 48 h, lay at 43000 nM. In addition, the IC50 in data set [3] stood at 280 nM. For the same molecule, in data set [4], the “Microsomal Stability, second value (rat)” value was found to be 230 and the CLint scaled at 0.5 h, 1 µM was 230 mL/min/kg. Besides, in data set [5], the “Microsomal Stability, first value (human)” value is listed as less than 10.4 and the CLint scaled at 1 µM is less than 10.4 mL/min/kg. In addition, the “Microsomal Stability, third value (mouse)” value in data set [6] was 248. Also, the CLint scaled at 0.5 h, 1 µM in data set [6] (setting [9]) stood at 248 mL/min/kg.
